Drawing on patent US20260007681A1, “INDOLE DERIVATIVES AS ESTROGEN RECEPTOR DEGRADERS” (REGENTS OF THE UNIVERSITY OF MICHIGAN, priority 2022, published 2026), this text covers DC50, Dmax and IC50 for 10 compounds.

The target in test [1] is ER in MCF-7 cells (Homo sapiens (Human), UniProt P03372). Briefly: In-cell western (ICW) ER degradation assay in MCF-7 cells (Compounds A1-A70). In kind it is cell-based. The note with it: MCF-7 cells, 16 hrs treatment; for DC50: ER degradation, 0.02 to 300 nM, read-out: MCF7 ICW DC50; for Dmax: MCF7, maximal ER degradation, read-out: MCF7 ICW Dmax (%). The method, then:
(§1) ERa degradative activity of compounds can be assessed in MCF-7 and T47D Cells. MCF-7 and T47D cell are seeded and are subsequently treated with the compounds at certain concentrations (e.g., 0.02 to 300 nM). DMSO can be used as vehicle control. Cells are fixed and are blocked with Intercept (PBS) Blocking Buffer (e.g., Li—COR, Odyssey Blocking Buffer), and are stained with ER (e.g., 1:500, Cell signaling) primary antibody for overnight at cold room. Secondary Antibody (e.g., IRDye 800CW Goat anti-Rabbit IgG) and CellTag 700 Stain are added in Intercept (PBS) Blocking Buffer. Finally, cell plate is placed in incubator to dry. Image and signal are captured on Odyssey® DLx Imaging System.
(§2) Day 3: After 16 hrs of compounds treatment, cells were fixed by 4% PFA and permeabilized with elution buffer (0.1% Triton X-100 in 1% PBS Solution). Subsequently, cells were blocked with Intercept (PBS) Blocking Buffer (Li—COR, Odyssey Blocking Buffer), and were stained with ER (1:500, Cell signaling) primary antibody for overnight at cold room.
(§3) Day 4: Remove the buffer, add IRDye 800CW Goat anti-Rabbit IgG Secondary Antibody (1:2000) and CellTag 700 Stain (1:500) in Intercept (PBS) Blocking Buffer. Finally, cell plate is placed in incubator to dry. Image and signal were captured on Odyssey® DLx Imaging System.

The target in test [2] is ER in T47D cells (Homo sapiens (Human), UniProt P03372). Briefly: In-cell western (ICW) ER degradation assay in T47D cells (Compounds A1-A70). Type of test: cell-based. The settings on record: T47D cells, 16 hrs treatment; for DC50: ER degradation, 0.02 to 300 nM; for Dmax: maximal ER degradation, read-out: T47D ICW Dmax (%). On the procedure: as §1, §2, §3
Sequence of ER in T47D cells (P03372 whole entry): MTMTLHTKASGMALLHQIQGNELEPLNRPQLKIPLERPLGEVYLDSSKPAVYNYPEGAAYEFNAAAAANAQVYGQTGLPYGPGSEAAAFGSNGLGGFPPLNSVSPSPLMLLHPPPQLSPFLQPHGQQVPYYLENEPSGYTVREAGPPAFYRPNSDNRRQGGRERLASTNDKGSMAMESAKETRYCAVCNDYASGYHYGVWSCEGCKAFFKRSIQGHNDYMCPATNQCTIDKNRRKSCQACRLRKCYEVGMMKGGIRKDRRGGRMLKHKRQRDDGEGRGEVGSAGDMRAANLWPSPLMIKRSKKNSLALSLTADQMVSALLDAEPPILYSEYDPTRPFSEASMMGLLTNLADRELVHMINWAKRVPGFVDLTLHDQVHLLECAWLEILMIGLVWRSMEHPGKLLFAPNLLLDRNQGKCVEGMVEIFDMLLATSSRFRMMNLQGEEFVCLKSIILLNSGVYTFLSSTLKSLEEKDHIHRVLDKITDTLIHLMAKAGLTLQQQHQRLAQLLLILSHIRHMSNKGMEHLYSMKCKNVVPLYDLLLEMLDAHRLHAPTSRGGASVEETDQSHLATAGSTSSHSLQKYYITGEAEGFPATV
In test [3] the target is CRBN/DDB1 (Homo sapiens (Human), UniProt Q96SW2). Type of test: binding. The note with it: His tagged CRBN+DDB-DLS7+CXU4, Cy5-labeled Thalidomide probe, one hour incubation; read-out: CRBN HTRF IC50. The method, then:
The binding potency was determined using H-TRF assay technology (Perkin Elmer). Compounds were serially diluted in DMSO and 0.2 μL volume was transferred to white 384-well plate.

Structures are written as SMILES. Where a name gives a salt, the structure may show the parent alone. Read-outs that look alike come from different tables or passages of the source.

Sequence of ER in MCF-7 cells (P03372 whole entry): as above
Sequence of CRBN/DDB1 (Q96SW2 whole entry): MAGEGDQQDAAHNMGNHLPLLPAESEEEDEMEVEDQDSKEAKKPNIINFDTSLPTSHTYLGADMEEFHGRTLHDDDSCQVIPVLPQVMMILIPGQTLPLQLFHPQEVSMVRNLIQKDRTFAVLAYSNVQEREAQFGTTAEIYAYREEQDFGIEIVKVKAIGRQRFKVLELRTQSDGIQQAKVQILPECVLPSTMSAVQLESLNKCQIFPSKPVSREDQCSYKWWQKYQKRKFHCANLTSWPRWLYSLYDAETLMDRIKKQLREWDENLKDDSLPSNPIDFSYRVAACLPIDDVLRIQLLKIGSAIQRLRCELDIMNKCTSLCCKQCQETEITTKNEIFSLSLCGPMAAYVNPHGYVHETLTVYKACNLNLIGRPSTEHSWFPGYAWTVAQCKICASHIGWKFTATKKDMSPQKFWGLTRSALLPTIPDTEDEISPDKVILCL
Sequence of CRBN/DDB1 (Q16531 whole entry partner): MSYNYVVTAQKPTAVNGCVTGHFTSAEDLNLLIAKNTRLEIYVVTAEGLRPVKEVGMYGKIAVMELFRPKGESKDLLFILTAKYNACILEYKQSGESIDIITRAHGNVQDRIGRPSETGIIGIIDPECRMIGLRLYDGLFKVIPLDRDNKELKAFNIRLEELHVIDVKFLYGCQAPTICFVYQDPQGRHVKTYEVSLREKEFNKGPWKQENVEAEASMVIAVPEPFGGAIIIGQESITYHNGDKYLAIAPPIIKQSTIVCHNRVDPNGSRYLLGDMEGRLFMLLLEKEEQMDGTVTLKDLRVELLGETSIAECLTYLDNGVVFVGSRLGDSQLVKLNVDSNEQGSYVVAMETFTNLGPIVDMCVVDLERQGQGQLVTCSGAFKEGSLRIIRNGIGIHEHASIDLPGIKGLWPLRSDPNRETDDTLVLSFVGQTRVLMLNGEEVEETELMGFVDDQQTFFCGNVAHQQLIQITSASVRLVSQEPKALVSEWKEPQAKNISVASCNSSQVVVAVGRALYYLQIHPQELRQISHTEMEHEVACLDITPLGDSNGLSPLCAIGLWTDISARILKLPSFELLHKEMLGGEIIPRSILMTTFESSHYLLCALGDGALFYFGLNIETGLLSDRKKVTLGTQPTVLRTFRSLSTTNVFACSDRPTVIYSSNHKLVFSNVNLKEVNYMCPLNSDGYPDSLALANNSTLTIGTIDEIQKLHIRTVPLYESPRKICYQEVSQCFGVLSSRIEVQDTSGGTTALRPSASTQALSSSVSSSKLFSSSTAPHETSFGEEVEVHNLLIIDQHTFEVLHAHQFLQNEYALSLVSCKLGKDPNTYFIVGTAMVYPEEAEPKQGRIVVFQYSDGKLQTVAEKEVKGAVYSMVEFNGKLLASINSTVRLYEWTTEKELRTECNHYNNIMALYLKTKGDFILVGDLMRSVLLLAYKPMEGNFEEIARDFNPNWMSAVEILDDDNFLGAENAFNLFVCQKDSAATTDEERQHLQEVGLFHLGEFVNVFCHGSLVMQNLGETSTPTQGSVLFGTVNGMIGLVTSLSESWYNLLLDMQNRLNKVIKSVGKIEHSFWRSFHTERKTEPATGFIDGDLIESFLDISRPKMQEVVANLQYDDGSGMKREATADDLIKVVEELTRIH

Consider `COc1cc(N2CCC3(CCN(C(=O)CN4Cc5cc6c(cc5C4)C(=O)N(C4CCC(=O)NC4=O)C6=O)CC3)CC2)ccc1[C@@H]1c2[nH]c3ccccc3c2C[C@@H](C)N1CC(F)F` (stereo partly drawn) [Compound A27, 6-(2-(9-(4-((1R,3R)-2-(2,2-difluoroethyl)-3-methyl-2,3,4,9-tetrahydro-1H-pyrido[3,4-b]indol-1-yl)-3-methoxyphenyl)-3,9-diazaspiro[5.5]undecan-3-yl)-2-oxoethyl)-2-(2,6-dioxopiperidin-3-yl)-6,7-dihydropyrrolo[3,4-f]isoindole-1,3(2H,5H)-dione], for which the DC50 in test [1] and in test [2] was under 1 nM in each case. For the same compound, the Dmax in test [1] is 50 to 75%; in test [2] (T47D), over 75%. Also, the IC50 in test [3] was 500 to 5000 nM.
Take `COc1cc(N2CCC(CN3CCN4c5cc(F)c(C(=O)N[C@H]6CCC(=O)NC6=O)cc5OC[C@@H]4C3)CC2)ccc1[C@@H]1c2[nH]c3ccccc3c2C[C@@H](C)N1CC(F)F` [Compound A30, (S)-3-((1-(4-((1R,3R)-2-(2,2-difluoroethyl)-3-methyl-2,3,4,9-tetrahydro-1H-pyrido[3,4-b]indol-1-yl)-3-methoxyphenyl)piperidin-4-yl)methyl)-N-((S)-2,6-dioxopiperidin-3-yl)-9-fluoro-1,2,3,4,4a,5-hexahydrobenzo[b]pyrazino[1,2-d][1,4]oxazine-8-carboxamide]: the DC50 in test [1] and in test [2] was 1 to 10 nM each time. Also, the maximal degradation (Dmax) in test [1] was in the range of 25 to 50%; in test [2] (T47D), 50 to 75%. Also, in test [3], the half-maximal inhibitory concentration (IC50) was 500 to 5000 nM.
With `COc1cc(N2CCC(CN3CCN(c4ccc(NC5CCC(=O)NC5=O)cc4F)CC3)CC2)ccc1[C@@H]1c2[nH]c3ccccc3c2C[C@@H](C)N1CC(F)F` (stereo partly drawn) [Compound A31, 3-((4-(4-((1-(4-((1R,3R)-2-(2,2-difluoroethyl)-3-methyl-2,3,4,9-tetrahydro-1H-pyrido[3,4-b]indol-1-yl)-3-methoxyphenyl)piperidin-4-yl)methyl)piperazin-1-yl)-3-fluorophenyl)amino)piperidine-2,6-dione], the values for the DC50 in test [1] and in test [2] were under 1 nM and 1 to 10 nM, respectively. For the same compound, the greatest degradation seen (Dmax) in test [1] and in test [2] (T47D) was 25 to 50% in each case. In addition, the IC50 in test [3] is under 50 nM.
In the case of `C[C@@H]1Cc2c([nH]c3ccccc23)[C@@H](c2cnc(N3CCC4(CC3)CC(CN3CCC(c5ccc6c(c5)n(C)c(=O)n6C5CCC(=O)NC5=O)CC3)C4)nc2)N1CC(F)F` (stereo partly drawn) [Compound A32, 3-(5-(1-((7-(5-((1R,3R)-2-(2,2-difluoroethyl)-3-methyl-2,3,4,9-tetrahydro-1H-pyrido[3,4-b]indol-1-yl)pyrimidin-2-yl)-7-azaspiro[3.5]nonan-2-yl)methyl)piperidin-4-yl)-3-methyl-2-oxo-2,3-dihydro-1H-benzo[d]imidazol-1-yl)piperidine-2,6-dione], the DC50 in test [1] and in test [2] was under 1 nM throughout. Moreover, the Dmax in test [1] lay in the range of 25 to 50%; in test [2] (T47D) it was 50 to 75%. In addition, the IC50 in test [3] was 50 to 500 nM.
Regarding `COc1cc(N2CCC(CN3CCC4(CC3)COc3cc5c(cc34)CN(C3CCC(=O)NC3=O)C5=O)CC2)ccc1[C@@H]1c2[nH]c3ccccc3c2C[C@@H](C)N1CC(F)F` (stereo partly drawn) [Compound A33, 3-(1′-((1-(4-((1R,3R)-2-(2,2-difluoroethyl)-3-methyl-2,3,4,9-tetrahydro-1H-pyrido[3,4-b]indol-1-yl)-3-methoxyphenyl)piperidin-4-yl)methyl)-7-oxo-5,7-dihydro-2H,6H-spiro[furo[2,3-f]isoindole-3,4′-piperidin]-6-yl) piperidine-2,6-dione], the DC50 in test [1] was 1 to 10 nM; in test [2], under 1 nM. The Dmax in test [1] was under 25%; in test [2], 50 to 75%. In test [3], the IC50 is 50 to 500 nM.
Regarding `COc1cc(N2CCC(CN3CCC(c4ccc(N[C@H]5CCC(=O)NC5=O)cc4F)CC3)CC2)ccc1[C@@H]1c2[nH]c3ccccc3c2C[C@@H](C)N1CC(F)F` [Compound A34, (S)-3-((4-(1-((1-(4-((1R,3R)-2-(2,2-difluoroethyl)-3-methyl-2,3,4,9-tetrahydro-1H-pyrido[3,4-b]indol-1-yl)-3-methoxyphenyl)piperidin-4-yl)methyl)piperidin-4-yl)-3-fluorophenyl)amino)piperidine-2,6-dione], the 50% degradation concentration (DC50) in test [1] was over 100 nM; in test [2], under 1 nM. Besides, the Dmax is under 25% in test [1] and 25 to 50% in test [2] (T47D). Besides, in test [3], the IC50 is under 50 nM.
With `COc1cc(N2CCC(CN3CCC(c4ccc5c(c4)n(C)c(=O)n5C4CCC(=O)NC4=O)CC3)CC2)ccc1[C@@H]1c2[nH]c3ccccc3c2C[C@@H](C)N1CC(F)F` (stereo partly drawn) [Compound A35, 3-(5-(1-((1-(4-((1R,3R)-2-(2,2-difluoroethyl)-3-methyl-2,3,4,9-tetrahydro-1H-pyrido[3,4-b]indol-1-yl)-3-methoxyphenyl)piperidin-4-yl)methyl)piperidin-4-yl)-3-methyl-2-oxo-2,3-dihydro-1H-benzo[d]imidazol-1-yl)piperidine-2,6-dione], the DC50 is 10 to 100 nM in test [1] and under 1 nM in test [2]. For the same compound, the Dmax in test [1] was in the range of 25 to 50%; in test [2] (T47D) it was 50 to 75%. For the same compound, in test [3], the IC50 lay in the range of 50 to 500 nM.
For the compound `COc1cc(N2CCC(CN3CCN4c5ccc6c(c5OC[C@H]4C3)CN([C@H]3CCC(=O)NC3=O)C6=O)CC2)ccc1[C@H]1c2[nH]c3ccccc3c2C[C@@H](C)N1CC(F)F` [Compound A39, (S)-3-((R)-7-((1-(4-((1S,3R)-2-(2,2-difluoroethyl)-3-methyl-2,3,4,9-tetrahydro-1H-pyrido[3,4-b]indol-1-yl)-3-methoxyphenyl)piperidin-4-yl)methyl)-1-oxo-1,3,5,5a,6,7,8,9-octahydro-2H-pyrazino[1′,2′:4,5][1,4]oxazino[2,3-e]isoindol-2-yl)piperidine-2,6-dione], the DC50 in test [1] and in test [2] was under 1 nM each time. For the same compound, the Dmax in test [1] and in test [2] (T47D) was 50 to 75% throughout. Besides, the IC50 in test [3] was in the range of 50 to 500 nM.
`COc1cc(N2CCC(CN3CCN4c5ccc6c(c5OC[C@@H]4C3)CN([C@@H]3CCC(=O)NC3=O)C6=O)CC2)ccc1[C@@H]1c2[nH]c3ccccc3c2C[C@@H](C)N1CC(F)F` [Compound A42, (R)-3-((S)-7-((1-(4-((1R,3R)-2-(2,2-difluoroethyl)-3-methyl-2,3,4,9-tetrahydro-1H-pyrido[3,4-b]indol-1-yl)-3-methoxyphenyl)piperidin-4-yl)methyl)-1-oxo-1,3,5,5a,6,7,8,9-octahydro-2H-pyrazino[1′,2′:4,5][1,4]oxazino[2,3-e]isoindol-2-yl)piperidine-2,6-dione]: the 50% degradation concentration (DC50) in test [1] and in test [2] was under 1 nM throughout. Further, the Dmax in test [1] and in test [2] (T47D) was 50 to 75% each time. In test [3], the IC50 lay in the range of 500 to 5000 nM.
As for `COc1cc(N2CCC(CN3CCN(c4ccc(C(=O)N[C@H]5CCC(=O)NC5=O)nc4)CC3)CC2)ccc1[C@@H]1c2[nH]c3ccccc3c2C[C@@H](C)N1CC(F)F` [Compound A43, 5-(4-((1-(4-((1R,3R)-2-(2,2-difluoroethyl)-3-methyl-2,3,4,9-tetrahydro-1H-pyrido[3,4-b]indol-1-yl)-3-methoxyphenyl)piperidin-4-yl)methyl)piperazin-1-yl)-N—((S)-2,6-dioxopiperidin-3-yl)picolinamide formate], the DC50 in test [1] and in test [2] was under 1 nM in each case. Moreover, the Dmax in test [1] and in test [2] (T47D) was 50 to 75% each time. Also, the IC50 in test [3] lay in the range of 500 to 5000 nM.
